Measured values: ChEMBL document CHEMBL3885861, “Open TG-GATES”

Organism: Rattus norvegicus
Assay: Open TG-GATES - Regimen: Single
Assay type: toxicity, organism-based, Sprague-Dawley
Parameters: regimen Single, gender Male, age 6 weeks
Settings: in vivo, ip, 0 mg/kg, route intraperitoneal injection, dose level Control; for APTT / Bas / Eos / Fbg / Hb / Ht / Lym / MCH / MCHC / MCV / Mono / Neu / PT / Plat / RBC / Ret / WBC: tissue Blood; for KIDNEY_L / KIDNEY_R / KIDNEY_TOTAL: tissue Kidney; for LIVER: tissue Liver; for A/G / ALP / ALT / AST / BUN / CRE / Ca / Cl / DBIL / GLC / IP / K / LDH / Na / PL / RALB / TBIL / TC / TG / TP / gamma-GTP: tissue Plasma

Question: With `N[C@H]1C(O)O[C@H](CO)[C@@H](O)[C@@H]1O` (some centres not stated) [GLUCOSAMINE] as the compound, how does the TERMINAL_BW (3 h) read?
Answer: 190.4 g

Question: And the APTT (3 h)?
Answer: 17.1 s

Question: And the Bas (3 h)?
Answer: 0.2%

Question: What about the Eos (3 h) of the same compound?
Answer: 0.6%

Question: And the Fbg (3 h)?
Answer: 273.4 mg/dL

Question: What about the Hb (3 h) of the same compound?
Answer: 12.6 g/dL

Question: And the Ht (3 h)?
Answer: 38.6%

Question: And the Lym (3 h)?
Answer: 73.6%

Question: And the MCH (3 h)?
Answer: 20.7 pg

Question: What about the MCHC (3 h) of the same compound?
Answer: 32.7%

Question: And the MCV (3 h)?
Answer: 63.4 fL

Question: And the Mono (3 h)?
Answer: 3.8%

Question: And the Neu (3 h)?
Answer: 20.2%

Question: And the PT (3 h)?
Answer: 15.5 s

Question: What about the Plat (3 h) of the same compound?
Answer: 111.6 x10_4/uL

Question: What about the RBC (3 h) of the same compound?
Answer: 609.4 x10_4/ul

Question: What about the Ret (3 h) of the same compound?
Answer: 9.4%

Question: What about the WBC (3 h) of the same compound?
Answer: 98.5 x10_2/uL

Question: And the KIDNEY_L (3 h)?
Answer: 0.9 g

Question: What about the KIDNEY_R (3 h) of the same compound?
Answer: 0.9 g

Question: What about the KIDNEY_TOTAL (3 h) of the same compound?
Answer: 1.7 g

Question: And the LIVER (3 h)?
Answer: 8.4 g

Question: What about the A/G (3 h) of the same compound?
Answer: 0.9

Question: And the ALP (3 h)?
Answer: 1386.8 IU/L

Question: And the ALT (3 h)?
Answer: 42.2 IU/L

Question: What about the AST (3 h) of the same compound?
Answer: 77 IU/L

Question: What about the BUN (3 h) of the same compound?
Answer: 9.6 mg/dL

Question: And the CRE (3 h)?
Answer: 0.2 mg/dL

Question: And the Ca (3 h)?
Answer: 10.5 mg/dL

Question: What about the Cl (3 h) of the same compound?
Answer: 106.4 meq/L

Question: And the DBIL (3 h)?
Answer: 0.01 mg/dL

Question: What about the GLC (3 h) of the same compound?
Answer: 175.4 mg/dL

Question: And the IP (3 h)?
Answer: 9.4 mg/dL

Question: And the K (3 h)?
Answer: 4.4 meq/L

Question: And the LDH (3 h)?
Answer: 61.2 IU/L

Question: And the Na (3 h)?
Answer: 142.2 meq/L

Question: What about the PL (3 h) of the same compound?
Answer: 141.6 mg/dL

Question: What about the RALB (3 h) of the same compound?
Answer: 2.4 g/dL

Question: What about the TBIL (3 h) of the same compound?
Answer: 0.052 mg/dL

Question: And the TC (3 h)?
Answer: 79.2 mg/dL

Question: What about the TG (3 h) of the same compound?
Answer: 47.8 mg/dL

Question: What about the TP (3 h) of the same compound?
Answer: 5.2 g/dL

Question: What about the gamma-GTP (3 h) of the same compound?
Answer: 0.8 IU/L

Question: And the TERMINAL_BW (6 h)?
Answer: 188.5 g

Question: What about the APTT (6 h) of the same compound?
Answer: 18.8 s

Question: What about the Bas (6 h) of the same compound?
Answer: 0.2%

Question: What about the Eos (6 h) of the same compound?
Answer: 0%

Question: And the Fbg (6 h)?
Answer: 298.6 mg/dL

Question: And the Hb (6 h)?
Answer: 12.9 g/dL

Question: And the Ht (6 h)?
Answer: 39.6%

Question: What about the Lym (6 h) of the same compound?
Answer: 62.6%

Question: What about the MCH (6 h) of the same compound?
Answer: 21.3 pg

Question: And the MCHC (6 h)?
Answer: 32.6%

Question: And the MCV (6 h)?
Answer: 65.5 fL

Question: And the Mono (6 h)?
Answer: 2%

Question: And the Neu (6 h)?
Answer: 34%

Question: What about the PT (6 h) of the same compound?
Answer: 15.8 s

Question: And the Plat (6 h)?
Answer: 113.1 x10_4/uL

Question: What about the RBC (6 h) of the same compound?
Answer: 604.2 x10_4/ul

Question: And the Ret (6 h)?
Answer: 9.4%

Question: What about the WBC (6 h) of the same compound?
Answer: 79.2 x10_2/uL

Question: And the KIDNEY_L (6 h)?
Answer: 0.8 g

Question: What about the KIDNEY_R (6 h) of the same compound?
Answer: 0.8 g

Question: What about the KIDNEY_TOTAL (6 h) of the same compound?
Answer: 1.6 g

Question: And the LIVER (6 h)?
Answer: 7.8 g

Question: And the A/G (6 h)?
Answer: 0.9

Question: And the ALP (6 h)?
Answer: 1323.4 IU/L

Question: What about the ALT (6 h) of the same compound?
Answer: 36.2 IU/L

Question: And the AST (6 h)?
Answer: 70.2 IU/L

Question: What about the BUN (6 h) of the same compound?
Answer: 8.2 mg/dL

Question: What about the CRE (6 h) of the same compound?
Answer: 0.2 mg/dL

Question: And the Ca (6 h)?
Answer: 10.3 mg/dL

Question: What about the Cl (6 h) of the same compound?
Answer: 106.8 meq/L

Question: What about the DBIL (6 h) of the same compound?
Answer: 0.008 mg/dL

Question: And the GLC (6 h)?
Answer: 178.6 mg/dL

Question: And the IP (6 h)?
Answer: 9.8 mg/dL

Question: And the K (6 h)?
Answer: 4 meq/L

Question: What about the LDH (6 h) of the same compound?
Answer: 51.8 IU/L

Question: And the Na (6 h)?
Answer: 142.4 meq/L

Question: What about the PL (6 h) of the same compound?
Answer: 144 mg/dL

Question: What about the RALB (6 h) of the same compound?
Answer: 2.5 g/dL

Question: What about the TBIL (6 h) of the same compound?
Answer: 0.052 mg/dL

Question: What about the TC (6 h) of the same compound?
Answer: 82.8 mg/dL

Question: What about the TG (6 h) of the same compound?
Answer: 41.4 mg/dL

Question: And the TP (6 h)?
Answer: 5.3 g/dL

Question: What about the gamma-GTP (6 h) of the same compound?
Answer: 1 IU/L

Question: And the TERMINAL_BW (9 h)?
Answer: 185.1 g

Question: What about the APTT (9 h) of the same compound?
Answer: 17 s

Question: And the Bas (9 h)?
Answer: 0.2%

Question: And the Eos (9 h)?
Answer: 0.8%

Question: And the Fbg (9 h)?
Answer: 298.8 mg/dL

Question: And the Hb (9 h)?
Answer: 13 g/dL

Question: And the Ht (9 h)?
Answer: 40.1%

Question: What about the Lym (9 h) of the same compound?
Answer: 66.6%

Question: And the MCH (9 h)?
Answer: 21.2 pg

Question: What about the MCHC (9 h) of the same compound?
Answer: 32.5%

Question: What about the MCV (9 h) of the same compound?
Answer: 65.3 fL

Question: And the Mono (9 h)?
Answer: 2.4%

Question: And the Neu (9 h)?
Answer: 29.6%

Question: What about the PT (9 h) of the same compound?
Answer: 15.7 s

Question: What about the Plat (9 h) of the same compound?
Answer: 109.5 x10_4/uL

Question: And the RBC (9 h)?
Answer: 615 x10_4/ul

Question: What about the Ret (9 h) of the same compound?
Answer: 9.4%

Question: What about the WBC (9 h) of the same compound?
Answer: 85.2 x10_2/uL

Question: And the KIDNEY_L (9 h)?
Answer: 0.8 g

Question: And the KIDNEY_R (9 h)?
Answer: 0.8 g

Question: And the KIDNEY_TOTAL (9 h)?
Answer: 1.6 g

Question: And the LIVER (9 h)?
Answer: 7.2 g

Question: And the A/G (9 h)?
Answer: 0.9

Question: What about the ALP (9 h) of the same compound?
Answer: 1439.4 IU/L

Question: And the ALT (9 h)?
Answer: 37.6 IU/L

Question: What about the AST (9 h) of the same compound?
Answer: 78 IU/L

Question: And the BUN (9 h)?
Answer: 7.6 mg/dL

Question: And the CRE (9 h)?
Answer: 0.2 mg/dL

Question: And the Ca (9 h)?
Answer: 10.4 mg/dL

Question: And the Cl (9 h)?
Answer: 107.4 meq/L

Question: And the DBIL (9 h)?
Answer: 0.014 mg/dL

Question: What about the GLC (9 h) of the same compound?
Answer: 157.4 mg/dL

Question: And the IP (9 h)?
Answer: 10.3 mg/dL

Question: What about the K (9 h) of the same compound?
Answer: 3.6 meq/L

Question: And the LDH (9 h)?
Answer: 51.6 IU/L

Question: And the Na (9 h)?
Answer: 143.2 meq/L

Question: What about the PL (9 h) of the same compound?
Answer: 131.4 mg/dL

Question: What about the RALB (9 h) of the same compound?
Answer: 2.5 g/dL

Question: What about the TBIL (9 h) of the same compound?
Answer: 0.078 mg/dL

Question: And the TC (9 h)?
Answer: 79.4 mg/dL

Question: What about the TG (9 h) of the same compound?
Answer: 18.4 mg/dL

Question: And the TP (9 h)?
Answer: 5.3 g/dL

Question: What about the gamma-GTP (9 h) of the same compound?
Answer: 0.6 IU/L

Question: And the TERMINAL_BW (24 h)?
Answer: 201.5 g

Question: And the APTT (24 h)?
Answer: 17.2 s

Question: And the Bas (24 h)?
Answer: 0.2%

Question: What about the Eos (24 h) of the same compound?
Answer: 1.4%

Question: What about the Fbg (24 h) of the same compound?
Answer: 293.6 mg/dL

Question: What about the Hb (24 h) of the same compound?
Answer: 12.9 g/dL

Question: And the Ht (24 h)?
Answer: 38.9%

Question: What about the Lym (24 h) of the same compound?
Answer: 77.2%

Question: And the MCH (24 h)?
Answer: 20.8 pg

Question: What about the MCHC (24 h) of the same compound?
Answer: 33.1%

Question: What about the MCV (24 h) of the same compound?
Answer: 62.6 fL

Question: What about the Mono (24 h) of the same compound?
Answer: 2.8%

Question: And the Neu (24 h)?
Answer: 17.2%

Question: And the PT (24 h)?
Answer: 16.2 s

Question: And the Plat (24 h)?
Answer: 117.8 x10_4/uL

Question: And the RBC (24 h)?
Answer: 622.4 x10_4/ul

Question: What about the Ret (24 h) of the same compound?
Answer: 8.9%

Question: And the WBC (24 h)?
Answer: 96.4 x10_2/uL

Question: What about the KIDNEY_L (24 h) of the same compound?
Answer: 0.9 g

Question: What about the KIDNEY_R (24 h) of the same compound?
Answer: 0.9 g

Question: And the KIDNEY_TOTAL (24 h)?
Answer: 1.8 g

Question: What about the LIVER (24 h) of the same compound?
Answer: 9 g

Question: What about the A/G (24 h) of the same compound?
Answer: 0.9

Question: What about the ALP (24 h) of the same compound?
Answer: 1430 IU/L

Question: What about the ALT (24 h) of the same compound?
Answer: 39.8 IU/L

Question: And the AST (24 h)?
Answer: 76.2 IU/L

Question: And the BUN (24 h)?
Answer: 13.6 mg/dL

Question: What about the CRE (24 h) of the same compound?
Answer: 0.2 mg/dL

Question: And the Ca (24 h)?
Answer: 10.4 mg/dL

Question: What about the Cl (24 h) of the same compound?
Answer: 105.8 meq/L

Question: And the DBIL (24 h)?
Answer: 0.012 mg/dL

Question: What about the GLC (24 h) of the same compound?
Answer: 185.2 mg/dL

Question: What about the IP (24 h) of the same compound?
Answer: 8.3 mg/dL

Question: What about the K (24 h) of the same compound?
Answer: 4.3 meq/L

Question: What about the LDH (24 h) of the same compound?
Answer: 108.2 IU/L

Question: And the Na (24 h)?
Answer: 142 meq/L

Question: What about the PL (24 h) of the same compound?
Answer: 151.6 mg/dL

Question: And the RALB (24 h)?
Answer: 2.5 g/dL

Question: What about the TBIL (24 h) of the same compound?
Answer: 0.04 mg/dL

Question: What about the TC (24 h) of the same compound?
Answer: 80.4 mg/dL

Question: And the TG (24 h)?
Answer: 69.8 mg/dL

Question: And the TP (24 h)?
Answer: 5.5 g/dL

Question: What about the gamma-GTP (24 h) of the same compound?
Answer: 0.4 IU/L
